Results on one substance are retold here after PMC9817077, “Simple, Reliable Protocol for High-Yield Solubilization of Seedless Amyloid-β Monomer” (ACS Chemical Neuroscience, 2022).

Data set [1] is described as follows: Thioflavin T (ThT) self-assembly (fibrillization) kinetics assay. Type of data set: physicochemical. As for the experimental part:
Peptide was prepared using either of the aforementioned protocols, with or without HFIP pretreatment, and self-assembly was initiated by rapid dilution into the fibrillization buffer to a final concentration of 1–10 μM peptide. […] The success of this strategy was confirmed empirically.
Self-assembly experiments were carried out in a 20 mM sodium phosphate buffer (pH 8) containing 200 μM EDTA, 1 mM NaN3, and 20 μM ThT. […] Correction can be carried out before or after this addition. However, if correction is carried out after the peptide has been added to the buffer stock, the peptide will already have begun to aggregate so that the delay could influence the results. In addition, adding acid to lower the pH would modify the buffer composition and increase the ionic strength from its intended value. As a better alternative, one can correct the pH in advance, by preparing a buffer stock that is more acidic than the final intended solution but reliably reaches the correct pH following the addition of a known quantity of NaOH and Aβ(1-42). Note that this correction is only necessary when preparing Aβ(1-42) solutions by direct addition of the peptide from NaOH stock and is not necessary when exchanging the peptide into the correct buffer by SEC.
The ratio of NaH2PO4 and Na2HPO4 in the 5× buffer stock was chosen to give the correct pH when mixed with the NaOH and other buffer constituents, and was initially based on calculation and subsequently optimized experimentally. The final intended quantities of H2PO4^– and HPO4^2– can be calculated from the Henderson-Hasselbalch eq.[97] Given an acid dissociation constant K2 ≈ 6.94 at the ionic strength of the self-assembly buffer,[98] one expects the final self-assembly buffer to contain approximately 1.6 mM H2PO4^– and 18.4 mM HPO4^2–. When NaOH is added to phosphate buffer, most of the hydroxide is consumed in the reaction OH^– + H2PO4^– → H2O + HPO4^2–. Therefore, if 10 mM NaOH is incorporated into the final buffer at 10% of the final volume, 1 mM H2PO4^– will be converted to 1 mM HPO4^2–. Thus, to achieve the correct final ratio of phosphate ions, the 5× buffer stock will need to contain 5 × (1.6 + 1.0) mM = 13 mM NaH2PO4 and 5 × (18.4 – 1.0) mM = 87 mM Na2HPO4. Similarly, if 50 mM NaOH is used, the 5× buffer stock will need to contain 5 × (1.6 + 5.0) mM = 33 mM NaH2PO4 and 5 × (18.4 – 5.0) mM = 67 mM Na2HPO4. In practice, these calculations were used to inform preparation of a test buffer stock, which was then used to prepare a test self-assembly buffer using the ratios described above. If the pH of this test solution was outside the 7.98–8.02 range, a new test buffer stock was prepared with a modified composition. […]

Data set [2] in a line: Re-freezing of thawed aliquots (AF4-MALS and ThT). Type of data set: physicochemical. Conditions: 50 mM NaOH, 5 min sonication; re-frozen in liquid N2, on pre-cooled metal or in a rack at −80 °C. As for the experimental part: 174 S6 Re-freezing of Aβ solubilized in 50 mM NaOH
177 used on multiple separate occasions. Aliquots that had been prepared by sonication for 5 min 178 in 50 mM NaOH were thawed and then re-frozen according to one of three methods: rapid 179 freezing by immersion in liquid N2 (freezing time < 1 s); freezing by placing the Eppendorf 180 tube in contact with pre-cooled metal at -80 °C (< 1 min); and simply placing the sample 181 in a rack in the -80 °C freezer (< 5 min). While the former was obviously preferable, the 182 other two methods were tested due to their convenience, and to ascertain whether improper […]
185 indistinguishable the results obtained with ﬁrst-use aliquots (Figures 3-4 in the main text), […]
Therefore, Aβ(1-42) aliquots
187 […] 188 convenient when performing a range of experiments requiring diﬀerent quantities of peptide.
190 temperature is -80 °C, use of liquid N2 is still recommended whenever possible.
The corresponding LS 90o signal. (c) The normalized ThT self-assembly kinetics. All panels use the same color scheme, which encodes the re-freezing method: red, placement in a rack in the -80 °C freezer; green, freezing by placement in contact with pre-cooled metal at -80 °C; blue, rapid freezing by immersion in liquid N2.
(1 picture or pasted object on this page, not shown here)

For data set [3] the following is noted: cited from earlier work. The text has this: The concentration dependence is significant as it reflects the ... || The nature and reaction order of the dominant processes responsible for generating fibrils can be inferred from the scaling exponent γ, which relates the polymerization half-time to the initial monomer concentration, τhalf ∝ m0^γ. If secondary processes are negligible so that primary nucleation dominates, then γ = −nc/2, where nc is the effective order of primary nucleation.[91],[92] If most new fibrils are formed by fragmentation of existing fibrils, then γ = −1/2.[88],[89]

Read-outs that look alike come from different tables or passages of the source.

Take “Aβ(1-42): Ultrapure recombinant Aβ(1-42) purchased from rPeptide, lyophilized from HFIP; disordered amyloid-forming peptide”: the “initial ThT fluorescence” value in data set [1] (50 mM NaOH samples, 4 μM peptide, 20 mM sodium phosphate pH 8, 37 °C, mean) was 2.2 % of final fluorescence. For the same substance, the “fibrillization half-time τhalf” value in data set [1] (commercial recombinant samples solubilized in 50 mM NaOH, 20 mM sodium phosphate pH 8, 37 °C, concentration not given) is 7700 ± 380 s; in data set [3] (in-house recombinant preparations, ref Silvers et al. 75), “≈ 2000 s”. For the same substance, the “scaling exponent γ” value in data set [1] (commercial recombinant, 5 min sonication in 50 mM NaOH (sample 50-5-N-13), fit of mean half-times 1.5–4.0 μM, 20 mM sodium phosphate pH 8, 37 °C) is listed as −1.32; in data set [3] (high-quality in-house recombinant preparations, same experimental conditions) it was “≈ −1.3”. Besides, in data set [1] (re-solubilized in 10 mM NaOH with or without HFIP pretreatment, 1–5 μM peptide, 20 mM sodium phosphate pH 8.0, 200 μM EDTA, 1 mM NaN3, 20 μM ThT, 37 °C, average, SD 0.24 across 9 peptide samples), the “scaling exponent γ (slope of half-time vs Aβ(1-42) concentration, double-logarithmic)” value was −1.04. In data set [2], the “AF4-MALS elugrams and ThT kinetics of re-frozen peptide against first-use aliquots” value is “indistinguishable”.
